PMC7749003 (SLAS discovery : advancing life sciences R & D, 2020)

Target: nCDase (Homo sapiens, UniProt Q9NR71)
Assay: manual RBM-ceramide assay with fresh compounds
Format: biochemical
Settings: dose titration

Chain of nCDase (Q9NR71 99-780 limits assumed): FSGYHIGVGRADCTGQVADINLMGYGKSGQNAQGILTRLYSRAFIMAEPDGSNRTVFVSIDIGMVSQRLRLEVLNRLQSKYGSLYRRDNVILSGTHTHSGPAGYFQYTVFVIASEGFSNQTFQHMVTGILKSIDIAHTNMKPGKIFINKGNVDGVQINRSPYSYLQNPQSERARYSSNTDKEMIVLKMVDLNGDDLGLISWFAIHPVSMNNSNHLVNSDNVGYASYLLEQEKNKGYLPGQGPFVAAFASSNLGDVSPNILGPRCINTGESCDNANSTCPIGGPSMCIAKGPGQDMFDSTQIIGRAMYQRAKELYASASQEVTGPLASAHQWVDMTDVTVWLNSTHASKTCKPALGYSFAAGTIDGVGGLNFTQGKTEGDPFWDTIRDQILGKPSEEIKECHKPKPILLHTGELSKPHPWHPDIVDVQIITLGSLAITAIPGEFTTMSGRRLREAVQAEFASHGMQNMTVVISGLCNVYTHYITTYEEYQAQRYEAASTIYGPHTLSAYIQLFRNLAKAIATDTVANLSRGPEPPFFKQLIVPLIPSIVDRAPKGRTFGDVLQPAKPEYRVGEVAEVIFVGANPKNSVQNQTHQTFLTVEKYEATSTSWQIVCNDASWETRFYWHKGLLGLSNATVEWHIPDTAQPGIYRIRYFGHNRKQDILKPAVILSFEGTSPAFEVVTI

IC50: 4 µM
Compound: CC(/C=C/C(=O)NO)=C\[C@@H](C)C(=O)c1ccc(N(C)C)cc1 [TSA, Trichostatin A]
